From ChEMBL document CHEMBL4393707, “Synthesis and evaluation of new quinazolin-4(3H)-one derivatives as potent antibacterial agents against multidrug resistant Staphylococcus aureus and Mycobacterium tuberculosis” (Eur J Med Chem, 2019) come the findings set out here.

One data set has as its system Escherichia coli. Description: Antibacterial activity against Escherichia coli ATCC 25922 incubated for 16 to 18 hrs by broth microdilution assay. The class given is functional.
The test system of a further data set is Acinetobacter baumannii. Briefly: Antibacterial activity against Acinetobacter baumannii BAA1605 incubated for 16 to 18 hrs by broth microdilution assay. It counts as functional. For orientation: Dilution methods test growth across graded concentrations, often in twofold steps.
Data set [1] is described as follows: Selectivity index, ratio of CC50 for African green monkey Vero cells to MIC for Mycobacterium tuberculosis H37Rv. It counts as toxicity. The conditions noted are these: read-out: Selectivity Index.
The test system of a further data set is Klebsiella pneumoniae. Briefly: Antibacterial activity against Klebsiella pneumoniae ATCC BAA-1705 incubated for 16 to 18 hrs by broth microdilution assay. It counts as functional.
The nature of data set [2]: Cytotoxicity against African green monkey Vero cells assessed as reduction in cell viability after 72 hrs by MTT assay. It counts as cell-based. The conditions noted are these: chlorocebus sabaeus. A general note: Tetrazolium assays rely on reduction of a dye to a coloured formazan, in cell work by metabolically active cells.
The test system of a further data set is Pseudomonas aeruginosa. Description: Antibacterial activity against Pseudomonas aeruginosa ATCC 27853 incubated for 16 to 18 hrs by broth microdilution assay. The class given is functional.
A further data set relates to Staphylococcus aureus. Briefly: Antibacterial activity against Staphylococcus aureus ATCC 29213 incubated for 16 to 18 hrs by broth microdilution assay. The class given is functional.
The subject of data set [3] is Mycobacterium tuberculosis. Description: Antitubercular activity against Mycobacterium tuberculosis H37Rv after 7 days by resazurin dye based assay. To be noted: 168 h. The class given is functional.

Molecules are shown by their SMILES. Converted amounts (≈) assume the structure as drawn. A value given as a limit tells only on which side of the number the result lay.

As usually defined, the MIC is the lowest concentration found to suppress growth. Broadly, the CC50 is the concentration that lowers cell viability or growth by half. In the case of `Cc1nc2ccc(OCc3cn(-c4cccc(Cl)c4)nn3)cc2c(=O)n1-c1ccccc1`, the MIC was over 64 mg/L against Escherichia coli; over 64 mg/L with Acinetobacter baumannii; over 64 mg/L in the data set with Klebsiella pneumoniae; over 64 mg/L against Pseudomonas aeruginosa; over 64 mg/L against Staphylococcus aureus; 16 mg/L (≈ 36 µM) in data set [3]. The selectivity ratio in data set [1] is over 6.25. Moreover, in data set [2], the CC50 at 72 h is over 100 mg/L.
As to `C#Cc1cccc(-n2c(/C=C/c3ccc(C#N)cc3)nc3ncccc3c2=O)c1`, the MIC (with Escherichia coli; against Acinetobacter baumannii; in the data set on Klebsiella pneumoniae; in the data set with Pseudomonas aeruginosa; against Staphylococcus aureus; in data set [3]) was over 64 mg/L throughout.
Regarding `Cc1nc2ccc(-c3ccc(F)cc3)cc2c(=O)n1-c1cccc(Cl)c1`, the MIC (against Escherichia coli; in the data set with Acinetobacter baumannii; in the data set on Klebsiella pneumoniae; in the data set with Pseudomonas aeruginosa; against Staphylococcus aureus; in data set [3]) was over 64 mg/L in each case.
Take `Cc1nc2cc(NCc3cn(-c4ccc(F)c(Cl)c4)nn3)ccc2c(=O)n1-c1ccccc1`: the MIC (in the data set on Escherichia coli; with Acinetobacter baumannii; in the data set with Klebsiella pneumoniae; against Pseudomonas aeruginosa; in the data set on Staphylococcus aureus; in data set [3]) was over 64 mg/L each time.
On to `N#Cc1ccc(/C=C/c2nc3ccc(OCc4cn(-c5ccc(F)c(Cl)c5)nn4)cc3c(=O)n2Cc2ccccc2)cc1`, for which the MIC (against Escherichia coli; in the data set with Acinetobacter baumannii; with Klebsiella pneumoniae; in the data set on Pseudomonas aeruginosa; in the data set on Staphylococcus aureus; in data set [3]) was over 64 mg/L throughout.
As to `COc1ccc(-c2ccc3c(=O)n(-c4cccc(Cl)c4)c(C)nc3c2)cc1`, the MIC (against Escherichia coli; against Acinetobacter baumannii; against Klebsiella pneumoniae; with Pseudomonas aeruginosa; with Staphylococcus aureus; in data set [3]) was over 64 mg/L in each case.
Turning to `COc1cc(-n2c(/C=C/c3ccc(C#N)cc3)nc3ncccc3c2=O)cc(OC)c1OC`, the MIC in the data set on Escherichia coli was over 64 mg/L; against Acinetobacter baumannii it was over 64 mg/L; in the data set with Klebsiella pneumoniae, over 64 mg/L; in the data set with Pseudomonas aeruginosa, over 64 mg/L; with Staphylococcus aureus it was 64 mg/L (≈ 145 µM); in data set [3] it was 64 mg/L (≈ 145 µM).
As to `Cc1nc2cc(-n3cc(-c4ccc(Br)cc4)nn3)ccc2c(=O)n1-c1ccccc1`, the MIC in the data set with Escherichia coli was over 64 mg/L; against Acinetobacter baumannii, over 64 mg/L; against Klebsiella pneumoniae it was over 64 mg/L; with Pseudomonas aeruginosa, over 64 mg/L; in the data set on Staphylococcus aureus it was 64 mg/L (≈ 140 µM); in data set [3], 64 mg/L (≈ 140 µM).
For `N#Cc1ccc(/C=C/c2nc3ccccc3c(=O)n2Cc2ccc(Cl)c(Cl)c2)cc1`, the MIC (in the data set with Escherichia coli; against Acinetobacter baumannii; with Klebsiella pneumoniae; in the data set with Pseudomonas aeruginosa; with Staphylococcus aureus; in data set [3]) was over 64 mg/L each time.
With `Cc1cc(-n2cc(CNc3ccc4c(=O)n(-c5ccccc5)c(C)nc4c3)nn2)ccc1[N+](=O)[O-]`, the minimum inhibitory concentration (MIC) (in the data set with Escherichia coli; against Acinetobacter baumannii; with Klebsiella pneumoniae; in the data set on Pseudomonas aeruginosa; against Staphylococcus aureus; in data set [3]) was over 64 mg/L each time.
In the case of `N#Cc1ccc(/C=C/c2nc3ccccc3c(=O)n2CCc2c[nH]c3ccccc23)cc1`, the MIC (with Escherichia coli; with Acinetobacter baumannii; with Klebsiella pneumoniae; with Pseudomonas aeruginosa; against Staphylococcus aureus; in data set [3]) was over 64 mg/L each time.
Turning to `CCC(C)(C)c1ccc(OCc2cn(-c3ccc4c(=O)n(-c5cccc(Cl)c5)c(C)nc4c3)nn2)cc1`, the MIC (against Escherichia coli; against Acinetobacter baumannii; in the data set on Klebsiella pneumoniae; in the data set with Pseudomonas aeruginosa; against Staphylococcus aureus; in data set [3]) was over 64 mg/L in each case.
Take `Cc1cccc(-n2c(/C=C/c3ccc(C#N)cc3)nc3ncccc3c2=O)c1C`: the MIC (against Escherichia coli; in the data set with Acinetobacter baumannii; against Klebsiella pneumoniae; with Pseudomonas aeruginosa; against Staphylococcus aureus; in data set [3]) was over 64 mg/L throughout.
As for `Cc1nc2cc(-n3cc(-c4ccccc4)nn3)ccc2c(=O)n1-c1ccccc1`, the MIC (against Escherichia coli; with Acinetobacter baumannii; with Klebsiella pneumoniae; with Pseudomonas aeruginosa; with Staphylococcus aureus; in data set [3]) was over 64 mg/L in each case.
As for `Cc1ccc(C)c(-n2c(/C=C/c3ccc(C#N)cc3)nc3ncccc3c2=O)c1`, the MIC (against Escherichia coli; in the data set with Acinetobacter baumannii; against Klebsiella pneumoniae; in the data set on Pseudomonas aeruginosa; against Staphylococcus aureus; in data set [3]) was over 64 mg/L throughout.
As to `Cc1nc2ccc(OCc3cn(-c4ccc(Cl)cc4)nn3)cc2c(=O)n1Cc1ccccc1`, the MIC (against Escherichia coli; with Acinetobacter baumannii; in the data set with Klebsiella pneumoniae; in the data set on Pseudomonas aeruginosa; with Staphylococcus aureus; in data set [3]) was over 64 mg/L throughout.
As to `Cc1cc(C)cc(OCc2cn(-c3ccc4c(=O)n(-c5cccc(Cl)c5)c(C)nc4c3)nn2)c1`, the MIC (with Escherichia coli; in the data set on Acinetobacter baumannii; in the data set with Klebsiella pneumoniae; against Pseudomonas aeruginosa; against Staphylococcus aureus; in data set [3]) was over 64 mg/L throughout.
Regarding `C#CCNc1ccc2c(=O)n(-c3ccccc3)c(/C=C/c3ccc(C#N)cc3)nc2c1`, the MIC (against Escherichia coli; in the data set with Acinetobacter baumannii; against Klebsiella pneumoniae; against Pseudomonas aeruginosa; in the data set with Staphylococcus aureus; in data set [3]) was over 64 mg/L each time.
Consider `N#Cc1ccc(/C=C/c2nc3ncccc3c(=O)n2-c2ccc3c(c2)OCCO3)cc1`, for which the minimal inhibitory concentration (MIC) (against Escherichia coli; against Acinetobacter baumannii; against Klebsiella pneumoniae; in the data set with Pseudomonas aeruginosa; with Staphylococcus aureus; in data set [3]) was over 64 mg/L throughout.
For the molecule `Cc1nc2cc(-n3cc(COc4ccccc4)nn3)ccc2c(=O)n1-c1ccccc1`, the MIC (with Escherichia coli; in the data set on Acinetobacter baumannii; with Klebsiella pneumoniae; in the data set on Pseudomonas aeruginosa; against Staphylococcus aureus; in data set [3]) was over 64 mg/L each time.
For the molecule `N#Cc1ccc(/C=C/c2nc3cc(-c4ccccc4)ccc3c(=O)n2-c2cccc(Cl)c2)cc1`, the MIC (with Escherichia coli; with Acinetobacter baumannii; in the data set with Klebsiella pneumoniae; in the data set on Pseudomonas aeruginosa; in the data set on Staphylococcus aureus; in data set [3]) was over 64 mg/L each time.
Take `N#Cc1ccc(/C=C/c2nc3cccc(F)c3c(=O)n2-c2cccc(C#N)c2)cc1`: the MIC is over 64 mg/L in the data set on Escherichia coli; over 64 mg/L in the data set with Acinetobacter baumannii; over 64 mg/L in the data set with Klebsiella pneumoniae; over 64 mg/L against Pseudomonas aeruginosa; 32 mg/L (≈ 81.6 µM) in the data set with Staphylococcus aureus; over 64 mg/L in data set [3].
Consider `C=CCOc1cccc(-n2c(/C=C/c3ccc(C#N)cc3)nc3cccc(F)c3c2=O)c1`, for which the MIC against Escherichia coli is over 64 mg/L; with Acinetobacter baumannii, over 64 mg/L; against Klebsiella pneumoniae it was over 64 mg/L; against Pseudomonas aeruginosa, over 64 mg/L; against Staphylococcus aureus, 64 mg/L (≈ 151 µM); in data set [3], over 64 mg/L.
Take `N#Cc1ccc(/C=C/c2nc3ccc(OCc4cn(-c5cccc(Cl)c5)nn4)cc3c(=O)n2Cc2ccccc2)cc1`: the MIC (in the data set on Escherichia coli; in the data set on Acinetobacter baumannii; in the data set on Klebsiella pneumoniae; in the data set on Pseudomonas aeruginosa; in the data set with Staphylococcus aureus; in data set [3]) was over 64 mg/L each time.
As for `COC(=O)Cn1c(/C=C/c2ccc(C#N)cc2)nc2ccc(OCc3cn(-c4ccc(F)c(Cl)c4)nn3)cc2c1=O`, the MIC (against Escherichia coli; in the data set with Acinetobacter baumannii; in the data set with Klebsiella pneumoniae; against Pseudomonas aeruginosa; against Staphylococcus aureus; in data set [3]) was over 64 mg/L throughout.
Take `Cc1ccc(-c2cn(-c3ccc4c(=O)n(-c5ccccc5)c(C)nc4c3)nn2)cc1`: the MIC (against Escherichia coli; with Acinetobacter baumannii; against Klebsiella pneumoniae; with Pseudomonas aeruginosa; in the data set with Staphylococcus aureus; in data set [3]) was over 64 mg/L throughout.
On to `CC(C)(C)c1ccc(-n2c(/C=C/c3ccc(C#N)cc3)nc3ncccc3c2=O)cc1`, for which the MIC (with Escherichia coli; in the data set on Acinetobacter baumannii; in the data set with Klebsiella pneumoniae; in the data set with Pseudomonas aeruginosa; against Staphylococcus aureus; in data set [3]) was over 64 mg/L each time.
In the case of `N#Cc1ccc(/C=C/c2nc3ccccc3c(=O)n2Nc2ccc(C(F)(F)F)cc2)cc1`, the MIC (against Escherichia coli; with Acinetobacter baumannii; in the data set with Klebsiella pneumoniae; in the data set with Pseudomonas aeruginosa; against Staphylococcus aureus; in data set [3]) was over 64 mg/L in each case.
Regarding `N#Cc1ccc(/C=C/c2nc3ccccc3c(=O)n2-c2cccc3ccccc23)cc1`, the MIC (in the data set on Escherichia coli; against Acinetobacter baumannii; against Klebsiella pneumoniae; in the data set with Pseudomonas aeruginosa; against Staphylococcus aureus; in data set [3]) was over 64 mg/L throughout.
`C#CCOc1ccc2nc(/C=C/c3ccc(C#N)cc3)n(CC(=O)OC)c(=O)c2c1`: the MIC (against Escherichia coli; in the data set with Acinetobacter baumannii; against Klebsiella pneumoniae; in the data set on Pseudomonas aeruginosa; with Staphylococcus aureus; in data set [3]) was over 64 mg/L in each case.
For `Cc1nc2ccc(OCc3cn(Cc4ccc(Br)cc4)nn3)cc2c(=O)n1-c1ccccc1`, the MIC was over 64 mg/L in the data set on Escherichia coli; over 64 mg/L in the data set on Acinetobacter baumannii; over 64 mg/L against Klebsiella pneumoniae; over 64 mg/L in the data set on Pseudomonas aeruginosa; 64 mg/L (≈ 127 µM) against Staphylococcus aureus; over 64 mg/L in data set [3].
